# pIC50, pKd: −log10 of the molar value. Several values for one entry are separate records, joined by “and”; a condition that tells them apart may be missing. Equal entries are not always repeated. Where two headings read alike, the source gives them in different places.
# Columns and labels:
# P. falciparum Dd2-2D4 = experiment: P. falciparum asexual blood stage (ABS) growth assay, SYBR Green, 72 h, wild-type parasites; format: cell-based, Plasmodium falciparum; details: Log[inhibitor] (M) -7.408
# Procedure: Parasites were maintained under standard culture conditions as described previously[56],[57]. […] The P. falciparum Dd2 cell lines used in this study (Dd2-2D4, halofuginone-induced, and HFGR-I) have previously undergone whole genome sequencing in our labs.
# This assay was performed as previously described[8]. In short, P. falciparum erythrocytic-stage parasites at 1% parasitemia and 1% hematocrit in RPMI + 0.5% Albumax were seeded at 40 μL/well in 384-well plates with test compounds in triplicate, dose-response format with 10 μM dihydroartemisinin as a kill-control and blank (no compound) wells as a growth-control. […] After 72 h, growth was quantified by measuring fluorescence (Molecular Devices SpectraMax iD5) following SYBR Green 1 staining. Data were analyzed in Excel and plotted in PRISM (V. 8.4.3–9.1.0, GraphPad).
# PfcProRS = target: T1, PfcProRS (Plasmodium falciparum, UniProt Q8I5R7); format: binding; details: for dose-response signal (normalized), SI Fig 8: single replicates
# T1 construct: made in house; host or cells: E. coli SoluBL-21
# T1 sequence (Q8I5R7 249-746): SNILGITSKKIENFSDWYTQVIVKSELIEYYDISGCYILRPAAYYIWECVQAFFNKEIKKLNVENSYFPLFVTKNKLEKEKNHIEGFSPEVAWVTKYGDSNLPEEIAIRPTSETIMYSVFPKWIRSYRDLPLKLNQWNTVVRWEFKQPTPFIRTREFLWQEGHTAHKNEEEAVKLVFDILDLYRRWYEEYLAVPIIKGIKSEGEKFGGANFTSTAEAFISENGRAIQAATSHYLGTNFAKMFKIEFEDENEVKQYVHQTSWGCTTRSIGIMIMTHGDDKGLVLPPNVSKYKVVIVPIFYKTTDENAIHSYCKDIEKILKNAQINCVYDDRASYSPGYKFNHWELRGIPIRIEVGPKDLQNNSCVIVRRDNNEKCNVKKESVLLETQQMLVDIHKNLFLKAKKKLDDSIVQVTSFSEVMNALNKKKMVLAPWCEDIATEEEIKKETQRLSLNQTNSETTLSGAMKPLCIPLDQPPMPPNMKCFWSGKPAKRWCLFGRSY
# HsProRS = HsProRS (Homo sapiens, UniProt P07814); experiment: TR-FRET ligand displacement assay with tracer MAT379 (CoraFluor-1-Halo and anti-His6 antibody formats); format: binding; design: made in house; host or cells: E. coli SoluBL-21; details: for TR-FRET dose-response, normalized signal (SI Fig 11): individual replicates
# Sequence of HsProRS (P07814 996-1512): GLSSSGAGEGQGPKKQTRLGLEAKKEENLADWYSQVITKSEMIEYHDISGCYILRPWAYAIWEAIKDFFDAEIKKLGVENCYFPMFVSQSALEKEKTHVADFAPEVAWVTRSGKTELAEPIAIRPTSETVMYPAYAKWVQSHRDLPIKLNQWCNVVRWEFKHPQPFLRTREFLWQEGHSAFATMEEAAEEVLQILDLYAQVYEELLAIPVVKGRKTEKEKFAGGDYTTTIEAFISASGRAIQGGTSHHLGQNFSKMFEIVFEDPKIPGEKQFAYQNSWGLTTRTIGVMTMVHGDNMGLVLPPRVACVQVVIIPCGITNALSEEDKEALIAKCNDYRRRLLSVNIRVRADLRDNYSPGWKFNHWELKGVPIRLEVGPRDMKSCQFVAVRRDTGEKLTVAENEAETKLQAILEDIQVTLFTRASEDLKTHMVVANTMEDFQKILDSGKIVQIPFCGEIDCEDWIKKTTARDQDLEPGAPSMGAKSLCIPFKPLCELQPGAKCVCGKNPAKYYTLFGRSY
structure (smiles),measurement,setting,value
O=C(NC1Cc2ccccc2C1)c1nccnc1NC(=O)N1CCNCC1 [compound 14],dose-response value per replicate (SI Fig 2g),P. falciparum Dd2-2D4,106
same,"dose-response signal (normalized), SI Fig 8",PfcProRS; Log[inhibitor] (M) -5.000,3.52E-01 and 3.02E-01 and 4.80E-01
same,"dose-response signal (normalized), SI Fig 8",PfcProRS; Log[inhibitor] (M) -5.301,6.97E-01 and 5.97E-01 and 7.91E-01
same,"dose-response signal (normalized), SI Fig 8",PfcProRS; Log[inhibitor] (M) -5.601,7.61E-01 and 7.19E-01 and 8.51E-01
same,"dose-response signal (normalized), SI Fig 8",PfcProRS; Log[inhibitor] (M) -5.904,9.39E-01 and 1.01E+00 and 9.69E-01
same,"dose-response signal (normalized), SI Fig 8",PfcProRS; Log[inhibitor] (M) -6.208,9.51E-01 and 9.80E-01 and 1.13E+00
same,"dose-response signal (normalized), SI Fig 8",PfcProRS; Log[inhibitor] (M) -6.509,1.06E+00 and 1.12E+00 and 9.92E-01
same,"dose-response signal (normalized), SI Fig 8",PfcProRS; Log[inhibitor] (M) -6.796,9.94E-01 and 1.03E+00 and 9.99E-01
same,"dose-response signal (normalized), SI Fig 8",PfcProRS; Log[inhibitor] (M) -7.108,1.00E+00 and 1.01E+00 and 1.05E+00
same,"dose-response signal (normalized), SI Fig 8",PfcProRS; Log[inhibitor] (M) -7.409,1.05E+00 and 9.56E-01 and 1.00E+00
same,"dose-response signal (normalized), SI Fig 8",PfcProRS; Log[inhibitor] (M) -7.710,1.05E+00 and 1.12E+00 and 1.08E+00
same,"dose-response signal (normalized), SI Fig 8",PfcProRS; Log[inhibitor] (M) -8.000,9.77E-01 and 1.04E+00 (2×)
same,"dose-response signal (normalized), SI Fig 8",PfcProRS; Log[inhibitor] (M) -8.301,1.09E+00 and 1.08E+00 and 1.13E+00
same,"dose-response signal (normalized), SI Fig 8",PfcProRS; Log[inhibitor] (M) -8.602,9.19E-01 and 1.01E+00 and 1.04E+00
same,"dose-response signal (normalized), SI Fig 8",PfcProRS; Log[inhibitor] (M) -9.000,9.80E-01 and 1.02E+00 and 1.08E+00
same,"dose-response signal (normalized), SI Fig 8",PfcProRS; Log[inhibitor] (M) -9.301,1.02E+00 and 1.01E+00 and 8.73E-01
same,PfcProRS -- best Kd,"PfcProRS; SI Fig 16a, values on -log scale",5.788
same,pIC50,HsProRS,< 5.00
same,pKd,"HsProRS; HsProRS - best Kd, SI Fig 16a, values on -log scale",6.46
same,"normalized TR-FRET ligand displacement signal, dose-response replicates (SI Fig 6)",HsProRS; Log[inhibitor] (M) -5.000,7.56E-01 and 7.38E-01 and 6.65E-01
same,"TR-FRET dose-response, normalized signal (SI Fig 11)",HsProRS; Log[inhibitor] (M) -5.000,5.37E-01 and 5.66E-01 and 5.12E-01
same,"normalized TR-FRET ligand displacement signal, dose-response replicates (SI Fig 6)",HsProRS; Log[inhibitor] (M) -5.301,8.27E-01 and 7.77E-01 and 8.29E-01
same,"TR-FRET dose-response, normalized signal (SI Fig 11)",HsProRS; Log[inhibitor] (M) -5.301,7.06E-01 and 7.34E-01 and 7.02E-01
same,"normalized TR-FRET ligand displacement signal, dose-response replicates (SI Fig 6)",HsProRS; Log[inhibitor] (M) -5.601,9.28E-01 and 8.85E-01 and 8.45E-01
same,"TR-FRET dose-response, normalized signal (SI Fig 11)",HsProRS; Log[inhibitor] (M) -5.601,8.30E-01 and 8.51E-01 and 8.70E-01
same,"normalized TR-FRET ligand displacement signal, dose-response replicates (SI Fig 6)",HsProRS; Log[inhibitor] (M) -5.904,9.66E-01 and 1.02E+00 and 8.66E-01
same,"TR-FRET dose-response, normalized signal (SI Fig 11)",HsProRS; Log[inhibitor] (M) -5.904,9.48E-01 and 8.82E-01 and 9.17E-01
same,"normalized TR-FRET ligand displacement signal, dose-response replicates (SI Fig 6)",HsProRS; Log[inhibitor] (M) -6.208,9.85E-01 and 9.86E-01 and 1.00E+00
same,"TR-FRET dose-response, normalized signal (SI Fig 11)",HsProRS; Log[inhibitor] (M) -6.208,9.32E-01 and 8.78E-01 and 9.58E-01
same,"normalized TR-FRET ligand displacement signal, dose-response replicates (SI Fig 6)",HsProRS; Log[inhibitor] (M) -6.509,1.15E+00 and 1.03E+00 and 9.65E-01
same,"TR-FRET dose-response, normalized signal (SI Fig 11)",HsProRS; Log[inhibitor] (M) -6.509,9.64E-01 and 9.63E-01 and 9.66E-01
same,"normalized TR-FRET ligand displacement signal, dose-response replicates (SI Fig 6)",HsProRS; Log[inhibitor] (M) -6.796,1.11E+00 and 1.13E+00 and 1.12E+00
same,"TR-FRET dose-response, normalized signal (SI Fig 11)",HsProRS; Log[inhibitor] (M) -6.796,1.02E+00 and 9.73E-01 and 9.90E-01
same,"normalized TR-FRET ligand displacement signal, dose-response replicates (SI Fig 6)",HsProRS; Log[inhibitor] (M) -7.108,1.08E+00 and 1.05E+00 and 9.83E-01
same,"TR-FRET dose-response, normalized signal (SI Fig 11)",HsProRS; Log[inhibitor] (M) -7.108,9.95E-01 and 1.03E+00 and 9.34E-01
same,"normalized TR-FRET ligand displacement signal, dose-response replicates (SI Fig 6)",HsProRS; Log[inhibitor] (M) -7.409,9.81E-01 and 8.66E-01 and 9.44E-01
same,"TR-FRET dose-response, normalized signal (SI Fig 11)",HsProRS; Log[inhibitor] (M) -7.409,9.68E-01 and 9.66E-01 and 9.87E-01
same,"normalized TR-FRET ligand displacement signal, dose-response replicates (SI Fig 6)",HsProRS; Log[inhibitor] (M) -7.710,1.08E+00 and 1.01E+00 (2×)
same,"TR-FRET dose-response, normalized signal (SI Fig 11)",HsProRS; Log[inhibitor] (M) -7.710,1.03E+00 (2×) and 9.36E-01
same,"normalized TR-FRET ligand displacement signal, dose-response replicates (SI Fig 6)",HsProRS; Log[inhibitor] (M) -8.000,9.08E-01 and 9.09E-01 and 9.75E-01
same,"TR-FRET dose-response, normalized signal (SI Fig 11)",HsProRS; Log[inhibitor] (M) -8.000,1.02E+00 and 1.03E+00 and 9.52E-01
same,"normalized TR-FRET ligand displacement signal, dose-response replicates (SI Fig 6)",HsProRS; Log[inhibitor] (M) -8.301,9.22E-01 and 9.86E-01 and 9.29E-01
same,"TR-FRET dose-response, normalized signal (SI Fig 11)",HsProRS; Log[inhibitor] (M) -8.301,1.02E+00 and 9.93E-01 and 9.56E-01
same,"normalized TR-FRET ligand displacement signal, dose-response replicates (SI Fig 6)",HsProRS; Log[inhibitor] (M) -8.602,9.82E-01 and 1.05E+00 and 8.99E-01
same,"TR-FRET dose-response, normalized signal (SI Fig 11)",HsProRS; Log[inhibitor] (M) -8.602,9.98E-01 and 9.57E-01 and 9.65E-01
same,"normalized TR-FRET ligand displacement signal, dose-response replicates (SI Fig 6)",HsProRS; Log[inhibitor] (M) -9.000,1.07E+00 and 1.04E+00 and 1.00E+00
same,"TR-FRET dose-response, normalized signal (SI Fig 11)",HsProRS; Log[inhibitor] (M) -9.000,1.00E+00 and 9.49E-01 and 9.70E-01
same,"normalized TR-FRET ligand displacement signal, dose-response replicates (SI Fig 6)",HsProRS; Log[inhibitor] (M) -9.301,9.76E-01 and 9.94E-01 and 1.01E+00
same,"TR-FRET dose-response, normalized signal (SI Fig 11)",HsProRS; Log[inhibitor] (M) -9.301,9.76E-01 and 1.00E+00 and 9.87E-01
same,HsProRS % signal at 10 μM,"HsProRS; no added proline/ATP (-), 10 μM",53.8%

# Reference: PMC9403976, “Elucidating the path to Plasmodium prolyl-tRNA synthetase inhibitors that overcome halofuginone resistance” (Nature Communications, 2022)
